This note sets out measurements from patent publication US7691885B2, “Pyridones useful as inhibitors of kinases” (Vertex Pharmaceuticals Incorporated, priority 2005, dated 2010).

Structures are written as SMILES.

In the test the target is T1, human Itk kinase (Homo sapiens, UniProt Q08881).
T1 sequence (Q08881 1-620): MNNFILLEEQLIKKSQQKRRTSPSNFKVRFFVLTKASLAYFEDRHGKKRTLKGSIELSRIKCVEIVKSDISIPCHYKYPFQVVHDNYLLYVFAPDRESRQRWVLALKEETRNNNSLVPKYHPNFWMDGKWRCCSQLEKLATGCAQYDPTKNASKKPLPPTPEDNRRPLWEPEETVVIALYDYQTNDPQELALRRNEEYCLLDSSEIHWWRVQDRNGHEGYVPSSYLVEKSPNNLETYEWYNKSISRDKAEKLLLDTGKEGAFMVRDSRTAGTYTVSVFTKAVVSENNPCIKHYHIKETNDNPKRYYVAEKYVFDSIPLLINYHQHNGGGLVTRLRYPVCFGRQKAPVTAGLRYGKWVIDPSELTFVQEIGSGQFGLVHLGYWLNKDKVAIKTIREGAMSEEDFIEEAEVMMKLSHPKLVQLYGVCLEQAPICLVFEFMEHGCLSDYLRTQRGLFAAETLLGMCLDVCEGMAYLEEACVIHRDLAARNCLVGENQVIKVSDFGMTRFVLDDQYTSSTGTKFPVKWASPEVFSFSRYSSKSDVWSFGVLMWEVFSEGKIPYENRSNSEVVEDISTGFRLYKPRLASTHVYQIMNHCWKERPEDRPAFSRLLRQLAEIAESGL
Briefly: Itk inhibition assay (radioactivity-based or spectrophotometric coupled enzyme assay). Type of test: biochemical. On the procedure: The compounds of the present invention can be evaluated as inhibitors of human Itk kinase using either a radioactivity-based or spectrophotometric assay. In general, compounds of the invention, including the compound in Table 1, are effective for the inhibition of ITK. Specifically, compound I.1 has a Ki value of <2 uM.
Assays are carried out in a mixture of 100 mM HEPES (pH 7.5), 10 mM MgCl2, 25 mM NaCl, 0.01% BSA and 1 mM DTT. Final substrate concentrations are 15 μM [γ-^33P]ATP (400 μCi ^33P ATP/μmol ATP, Amersham Pharmacia Biotech/Sigma Chemicals) and 2 μM peptide (SAM68 protein Δ332-443). Assays are carried out at 25° C. in the presence of 30 nM Itk. An assay stock buffer solution is prepared containing all of the reagents listed above, with the exception of ATP and the test compound of interest. […]
IC50 data are calculated from non-linear regression analysis of the initial rate data using the Prism software package (GraphPad Prism version 3.0cx for Macintosh, GraphPad Software, San Diego Calif., USA). […]
Ki(app) data are calculated from non-linear regression analysis of the initial rate data using the Prism software package (GraphPad Prism version 3.0cx for Macintosh, GraphPad Software, San Diego Calif., USA). […]

Usually Ki stands for a measure of affinity in units of concentration, obtained from inhibition or displacement. For the molecule `O=c1[nH]cc(-c2ccccc2)cc1-c1cc2ccccc2[nH]1` [Compound I.1, 3-(1H-indol-2-yl)-5-phenylpyridin-2(1H)-one], the Ki was less than 2000 nM.
